Reference: ChEMBL document CHEMBL3351638, “Discovery of 6-[5-(4-fluorophenyl)-3-methyl-pyrazol-4-yl]-benzoxazin-3-one derivatives as novel selective nonsteroidal mineralocorticoid receptor antagonists” (Bioorg Med Chem, 2014)

What was measured:
Progesterone receptor = target: T1, Progesterone receptor (Homo sapiens, UniProt P06401); experiment: Displacement of [[3H]-Progesterone from progesterone receptor (unknown origin) expressed in 293 cells after 16 hrs by scintillation counting; assay type: cell-based
T1 sequence (P06401 whole entry): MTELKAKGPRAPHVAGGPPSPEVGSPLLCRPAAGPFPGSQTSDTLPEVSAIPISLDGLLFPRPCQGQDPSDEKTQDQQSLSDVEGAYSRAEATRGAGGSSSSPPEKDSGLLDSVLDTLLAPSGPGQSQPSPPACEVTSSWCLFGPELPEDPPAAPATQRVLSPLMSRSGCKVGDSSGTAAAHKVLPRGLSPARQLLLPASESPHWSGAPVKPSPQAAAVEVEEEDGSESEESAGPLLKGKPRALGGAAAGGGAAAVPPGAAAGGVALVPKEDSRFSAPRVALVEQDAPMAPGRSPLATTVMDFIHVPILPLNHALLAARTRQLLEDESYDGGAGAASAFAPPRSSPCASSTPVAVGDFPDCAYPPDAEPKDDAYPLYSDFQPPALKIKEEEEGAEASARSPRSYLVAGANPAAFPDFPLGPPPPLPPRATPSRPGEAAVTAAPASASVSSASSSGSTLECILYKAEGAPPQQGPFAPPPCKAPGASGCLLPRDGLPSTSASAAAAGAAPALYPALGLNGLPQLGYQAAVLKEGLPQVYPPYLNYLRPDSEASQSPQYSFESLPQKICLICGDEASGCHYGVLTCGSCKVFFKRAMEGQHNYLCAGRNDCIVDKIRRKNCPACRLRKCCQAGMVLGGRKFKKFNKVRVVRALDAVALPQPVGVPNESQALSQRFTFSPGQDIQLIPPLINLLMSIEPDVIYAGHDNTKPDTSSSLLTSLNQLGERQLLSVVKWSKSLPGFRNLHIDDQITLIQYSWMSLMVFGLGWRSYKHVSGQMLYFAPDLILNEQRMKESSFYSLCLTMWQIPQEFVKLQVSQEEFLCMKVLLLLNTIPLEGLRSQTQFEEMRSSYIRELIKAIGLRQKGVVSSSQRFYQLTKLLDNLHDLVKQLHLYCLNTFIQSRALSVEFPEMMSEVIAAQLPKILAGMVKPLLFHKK

[1] = Lipophilicity, log D of the compound at pH 7.4 by HPLC analysis; assay type: physicochemical; settings: buffer
[2] = Clearance in Sprague-Dawley rat at 1 mg/kg, iv; assay type: ADME, organism-based; parameters: dose 1 mg/kg, route intravenous; settings: in vivo
[3] = Volume of distribution at steady state in Sprague-Dawley rat at 1 mg/kg, iv; assay type: ADME, organism-based; parameters: dose 1 mg/kg, route intravenous; settings: in vivo, read-out: Vdss
[4] = AUC (0 to 24 hrs) in Sprague-Dawley rat at 3 mg/kg, po; assay type: ADME, organism-based; parameters: time < 24 hr, dose 3 mg/kg, route oral; settings: plasma
[5] = Mean residence time in Sprague-Dawley rat at 3 mg/kg, po; assay type: ADME, organism-based; parameters: dose 3 mg/kg, route oral; settings: in vivo
[6] = Oral bioavailability in Sprague-Dawley rat at 3 mg/kg; assay type: ADME, organism-based; settings: in vivo
Rattus norvegicus [7] = experiment: Toxicity in DOCA-salt hypertensive Wistar rat model assessed as change in heart rate at 100 mg/kg, po qd for 18 days measured 24 hrs post 7th and 14th last dose by tail-cuff method; assay type: organism-based; parameters: dose 100 mg/kg, route oral; settings: in vivo
Rattus norvegicus [8] = experiment: Toxicity in DOCA-salt hypertensive Wistar rat model assessed as change in seminal vesicle weight at 100 mg/kg, po qd for 18 days measured 24 hrs post 7th and 14th last dose […]; assay type: organism-based; parameters: dose 100 mg/kg, route oral; settings: in vivo
[9] = Metabolic stability in rat hepatic microsomes at 1 umol/L pre-incubated fro 5 mins at 37 degC before addition of NADPH-generating system by UV detection based HPLC method; assay type: ADME; settings: liver microsomes, read-out: CLH
[10] = target: T2, Mineralocorticoid receptor (Homo sapiens, UniProt P08235)
T2 sequence (P08235 whole entry): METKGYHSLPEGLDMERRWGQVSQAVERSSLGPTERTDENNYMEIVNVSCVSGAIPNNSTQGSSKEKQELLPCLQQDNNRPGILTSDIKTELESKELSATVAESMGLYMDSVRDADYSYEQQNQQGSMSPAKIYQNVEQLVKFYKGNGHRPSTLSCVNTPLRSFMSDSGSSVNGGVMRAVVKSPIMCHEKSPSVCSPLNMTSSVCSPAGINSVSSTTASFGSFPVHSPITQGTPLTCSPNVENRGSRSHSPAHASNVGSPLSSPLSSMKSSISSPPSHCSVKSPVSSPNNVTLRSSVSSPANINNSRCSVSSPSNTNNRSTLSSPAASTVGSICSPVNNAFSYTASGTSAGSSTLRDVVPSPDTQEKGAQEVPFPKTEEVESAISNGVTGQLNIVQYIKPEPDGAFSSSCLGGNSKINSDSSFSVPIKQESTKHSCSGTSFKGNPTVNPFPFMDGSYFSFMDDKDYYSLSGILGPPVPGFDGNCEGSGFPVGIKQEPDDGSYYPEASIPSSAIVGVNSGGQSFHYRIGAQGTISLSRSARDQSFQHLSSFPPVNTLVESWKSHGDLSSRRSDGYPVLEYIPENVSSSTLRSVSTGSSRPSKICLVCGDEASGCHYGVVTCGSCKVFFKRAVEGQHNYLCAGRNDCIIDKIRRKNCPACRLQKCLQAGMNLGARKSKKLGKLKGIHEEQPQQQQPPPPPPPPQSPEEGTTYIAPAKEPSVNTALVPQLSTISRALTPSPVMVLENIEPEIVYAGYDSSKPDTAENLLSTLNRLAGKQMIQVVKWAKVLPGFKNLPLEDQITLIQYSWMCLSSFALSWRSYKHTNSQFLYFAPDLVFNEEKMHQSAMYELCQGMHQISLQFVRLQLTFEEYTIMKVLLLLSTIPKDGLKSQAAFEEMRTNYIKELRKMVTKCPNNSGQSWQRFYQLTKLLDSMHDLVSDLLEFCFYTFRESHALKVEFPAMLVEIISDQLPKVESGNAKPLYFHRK
Description: Antagonist activity at human mineralocorticoid receptor expressed in COS1 cells after 1 day by luciferase reporter gene assay

[11] = target: T2, Mineralocorticoid receptor; experiment: biochemical
Description: Displacement of [3H]aldosterone from human mineralocorticoid receptor expressed in 293 cells after 16 hrs by scintillation counting

Androgen receptor = target: T3, Androgen receptor (Homo sapiens, UniProt P10275); experiment: biochemical
T3 sequence (P10275 whole entry): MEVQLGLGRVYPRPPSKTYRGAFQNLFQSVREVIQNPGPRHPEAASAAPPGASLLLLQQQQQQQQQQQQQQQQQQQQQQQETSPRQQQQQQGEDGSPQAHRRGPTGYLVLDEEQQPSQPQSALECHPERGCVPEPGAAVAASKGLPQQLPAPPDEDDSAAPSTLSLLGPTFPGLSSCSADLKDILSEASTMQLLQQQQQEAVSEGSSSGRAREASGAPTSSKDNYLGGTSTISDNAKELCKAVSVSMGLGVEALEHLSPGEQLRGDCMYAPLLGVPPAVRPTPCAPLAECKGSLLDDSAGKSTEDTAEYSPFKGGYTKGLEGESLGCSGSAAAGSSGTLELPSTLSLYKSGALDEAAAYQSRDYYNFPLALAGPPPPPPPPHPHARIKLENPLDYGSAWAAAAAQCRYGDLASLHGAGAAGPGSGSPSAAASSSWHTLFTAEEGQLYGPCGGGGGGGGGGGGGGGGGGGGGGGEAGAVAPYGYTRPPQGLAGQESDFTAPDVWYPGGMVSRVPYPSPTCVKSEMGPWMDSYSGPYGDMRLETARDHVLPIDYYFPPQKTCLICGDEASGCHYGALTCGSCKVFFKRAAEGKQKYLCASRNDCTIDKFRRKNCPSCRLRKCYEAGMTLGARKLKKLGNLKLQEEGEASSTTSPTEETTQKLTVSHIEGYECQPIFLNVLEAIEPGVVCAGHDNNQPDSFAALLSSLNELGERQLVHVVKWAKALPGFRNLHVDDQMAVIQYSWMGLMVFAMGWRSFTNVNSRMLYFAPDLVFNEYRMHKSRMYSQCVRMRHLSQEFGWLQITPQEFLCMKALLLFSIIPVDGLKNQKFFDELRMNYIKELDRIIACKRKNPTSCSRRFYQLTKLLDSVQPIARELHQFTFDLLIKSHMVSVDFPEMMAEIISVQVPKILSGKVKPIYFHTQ
Description: Displacement of [3H]testosterone from androgen receptor (unknown origin) expressed in 293 cells after 16 hrs by scintillation counting

Glucocorticoid receptor = Glucocorticoid receptor (Homo sapiens, UniProt P04150); experiment: biochemical
Glucocorticoid receptor, sequence (P04150 whole entry, looked up): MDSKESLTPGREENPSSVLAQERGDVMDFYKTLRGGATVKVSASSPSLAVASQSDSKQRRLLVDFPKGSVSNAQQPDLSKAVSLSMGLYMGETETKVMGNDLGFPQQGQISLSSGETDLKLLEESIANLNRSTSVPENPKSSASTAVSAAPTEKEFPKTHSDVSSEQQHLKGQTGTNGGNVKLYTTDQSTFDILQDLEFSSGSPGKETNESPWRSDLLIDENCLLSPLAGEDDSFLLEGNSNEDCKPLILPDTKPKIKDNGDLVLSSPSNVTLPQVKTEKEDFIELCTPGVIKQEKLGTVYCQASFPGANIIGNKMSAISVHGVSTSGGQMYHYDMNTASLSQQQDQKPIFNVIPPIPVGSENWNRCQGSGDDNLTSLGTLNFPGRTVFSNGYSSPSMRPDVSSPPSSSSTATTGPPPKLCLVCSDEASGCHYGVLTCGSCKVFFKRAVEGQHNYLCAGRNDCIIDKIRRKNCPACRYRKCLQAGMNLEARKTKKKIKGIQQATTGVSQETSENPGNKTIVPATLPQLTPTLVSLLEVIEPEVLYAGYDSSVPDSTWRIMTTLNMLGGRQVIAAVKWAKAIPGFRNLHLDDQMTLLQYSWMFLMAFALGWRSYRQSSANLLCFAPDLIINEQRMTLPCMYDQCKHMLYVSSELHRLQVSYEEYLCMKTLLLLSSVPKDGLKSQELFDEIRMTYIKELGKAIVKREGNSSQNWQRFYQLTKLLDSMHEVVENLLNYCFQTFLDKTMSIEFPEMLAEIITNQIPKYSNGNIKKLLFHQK
Description: Displacement of [3H]-Dexamethasone from glucocorticoid receptor (unknown origin) expressed in 293 cells after 16 hrs by scintillation counting

Work on `Cc1nn(CC(F)(F)CO)c(-c2ccc(F)cc2)c1-c1ccc2c(c1)NC(=O)CO2` yielded an IC50 (Progesterone receptor) of over 10 µM, a logD [1] of 2.05 and a clearance [2] of 16.5 mL/min/kg. For the same compound, the Vd [3] was 1.36 L/kg, the AUC(0-t) at 24 h [4] was 662 ng·h/mL and the MRT [5] was 3.77 h. For the same compound, the bioavailability [6] was 21.4%, the Activity (Rattus norvegicus [7]) was “Non-toxic” and the Activity (Rattus norvegicus [8]) was “Non-toxic”. For the same compound, the microsomal CLint at 1 µM [9] was over 42 µL/min/mg, the IC50 [10] was 0.071 µM and the IC50 [11] was 0.051 µM. For the same compound, the IC50 (Androgen receptor) was over 10 µM and the IC50 (Glucocorticoid receptor) was 2.4 µM.
